Measured values from patent US20210352895A1, “SYNERGISTIC PESTICIDAL COMPOSITIONS AND METHODS FOR DELIVERY OF ACTIVE INGREDIENTS” (0903608 B.C. Ltd., priority 2018, published 2021).
Several values for one entry are separate records, joined by “and”; a condition that tells them apart may be missing. Equal entries are not always repeated. Where two headings read alike, the source gives them in different places.

Key:
Fusarium oxysporum = test: Synergistic Growth Inhibition Assay (MIC / FIC index, resazurin, 96-well) on Fusarium oxysporum; type: cell-based; details: for MIC (A): Compound A alone; for MIC: 48 h, read-out: MIC (B), Compound B alone
Method: (§1) In some embodiments, the synergistic action between the pesticidal active ingredient, and the at least one C4-C10 (or alternatively C11 or C12) saturated or unsaturated aliphatic acid components of the pesticidal compositions according to embodiments of the present disclosure was tested using a Synergistic Growth Inhibition Assay, which is derived from and related to a checkerboard assay as is known in the art for testing of combinations of antimicrobial agents. In the Synergistic Growth Inhibition Assay used in accordance with some embodiments of the present disclosure, multiple dilutions of combinations of pesticidal active ingredient and at least one C4-C10 saturated or unsaturated aliphatic acid agents are tested in individual cells for inhibitory activity against a target pest or pathogenic organism. In one such embodiment, the combinations of pesticidal active ingredient and C4-C10 (or alternatively C11 or C12) saturated or unsaturated aliphatic acid agents may preferably be tested in decreasing concentrations. In a further such embodiment, the combinations of pesticidal active ingredient and C4-C10 (or alternatively C11 or C12) saturated or unsaturated aliphatic acid agents may be tested in increasing concentrations. These multiple combinations of the pesticidal active ingredient and at least one C4-C10 (or alternatively C11 or C12) saturated or unsaturated aliphatic acid agents may be prepared in 96-well microtiter plates. In one such embodiment, the Synergistic Growth Inhibition Assay then comprises rows which each contain progressively decreasing concentrations of the pesticidal active ingredient and one or more C4-C10 (or alternatively C11 or C12) saturated or unsaturated aliphatic acid agents to test for the MIC of the agents in combination at which growth of the target pest or pathogen is inhibited. Thus, each well of the microtiter plate is a unique combination of the two agents, at which inhibitory efficacy of the combination against the target pest or pathogen can be determined.
(§2) In one embodiment according to the present disclosure, for each row of microtiter cells in the Synergistic Growth Inhibition Assay, the FIC index is calculated from the lowest concentration of the pesticidal active ingredient and one or more C4-C10 saturated or unsaturated aliphatic acid agents necessary to inhibit growth of a target pest or pathogen. The FIC of each component is derived by dividing the concentration of the agent present in that well of the microtiter plate by the minimal inhibitory concentration (MIC) needed of that agent alone to inhibit growth of the target pest or pathogen. The FIC index is then the sum of these values for both agents in that well of the microtiter plate. The FIC index is calculated for each row as follows:
(§3) FICindex=MICa/MICA+MICb/MICB
(§4) Fractional inhibitory concentration indices may then used as measure of synergy. […] When the FIC index is equal to 1, the combination is additive.
(§5) Then, serial dilutions of these initial compositions in successive wells in the row of the microtiter plate were used to assay the pesticidal composition under the same conditions to determine the concentration of the composition combining the two agents corresponding to the microtiter well in which growth inhibition of the target pest or organism ceases.
Resazurin dye (also known as Alamar blue dye) was used as an indicator to determine the presence of growth or inhibition of growth of Fusarium oxysporum in the wells of the 96 well microtiter plates used in the exemplary Synergistic Growth Inhibition Assay. In addition to the color change of the resazurin dye in the presence of growth of the Fusarium oxysporum, an optical or visual examination of the microtiter well may also be made to additionally determine the presence of growth or inhibition of growth of the Fusarium oxysporum.

Botrytis cinerea = test: Synergistic Growth Inhibition Assay (MIC / FIC index, resazurin, 96-well) on Botrytis cinerea; type: cell-based; details: for MIC: 48 h, Compound B alone, read-out: MIC (B)
Method: as §1, §2, §3, §4, §5
(§6) Similarly to as described above, Resazurin was used as an indicator of growth or inhibition of growth of Botrytis cinerea in the exemplary Synergistic Growth Inhibition Assay. In addition to the color change of the resazurin, an optical or visual examination of the microtiter well may also be made to additionally determine the presence of growth or inhibition of growth of the Botrytis cinerea.

Sclerotinia sclerotiorum = test: Synergistic Growth Inhibition Assay (MIC / FIC index, resazurin, 96-well) on Sclerotinia sclerotiorum; type: cell-based; details: for MIC (A): Compound A alone
Method: as §1, §2, §3, §4, §5
as §6, with “Sclerotinia sclerotiorum” for “Botrytis cinerea”, “Sclerotinia sclerotiorum.” for “Botrytis cinerea.”

[1] = Solubility / effective solubilized concentration in 10% DMSO/90% PDB by HPLC; details: DMSO stock diluted 10-fold in PDB; verified by HPLC
Method: This solution was diluted 10-fold in potato dextrose broth (PDB) to give a concentration of 0.05 mg/mL in 10% DMSO/90% PDB.

Trichoplusia ni [2] = test: In-vitro insecticidal efficacy of Pylon (chlorfenapyr) with unsaturated aliphatic acids in artificial diet, Colby synergy factor; type: in vivo, Trichoplusia ni (cabbage looper)
Method: A stock solution was prepared for each of trans-2-hexenoic acid and trans-3-hexenoic acid (both available from Sigma-Aldrich, St. Louis, Mo., USA), by dissolving each exemplary unsaturated aliphatic acid in 100% dimethylsulfoxide (DMSO) at a concentration of 20 mg/mL (20,000 ppm). A stock solution for the potassium salt of (2E,4E)-2,4-hexadienoic acid was prepared by dissolving the salt in water to form a 20 mg/mL (20,000 ppm) solution.
An artificial diet suitable for Trichoplusia ni (cabbage looper caterpillar) was prepared according to the modified McMorran artificial diet recipe known in the entomology field (containing agar, casein, potassium hydroxide, alphacel, Wesson's salt mix, sugar, toasted wheat germ, choline chloride, ascorbic acid, methyl paraben, aureomycin, linseed oil and vitamin solution).
The treated artificial diet was then used to fill each well of a 24-well treatment plate with approximately 0.5 mL of artificial diet, which was allowed to solidify at room temperature and stored overnight at approximately 4 C. […] Each experiment contained 3 replicates, and was repeated at least 3 times.
(§7) While for SF<1, antagonism is present and for SF=1, the efficacy of the compounds is merely additive.

Alternaria solani = test: Synergistic Growth Inhibition Assay (MIC / FIC index) on Alternaria solani; type: cell-based; details: Alternaria solani; for MIC: 7 days incubation
Method: as §1, §2, §3, §4, §5
Alternatively, other suitable representative pest or pathogen organisms may be used to determine synergy of combinations of pesticidal active ingredient agents and one or more C4-C10 (or alternatively C11 or C12) saturated or unsaturated aliphatic acid agents in accordance with embodiments of the present disclosure. For example, other representative fungal pathogens may be used, such as but not limited to Leptosphaeria maculans, Sclerotinia spp. and Verticillium spp.

Trichoplusia ni [3] = test: In-planta insecticidal efficacy of Pylon (chlorfenapyr) with unsaturated aliphatic acids on sprayed green cabbage plants, Colby synergy factor; type: in vivo, Trichoplusia ni (cabbage looper); details: 0.06 mg/mL aliphatic acid (salt)
Method: A stock solution for the potassium salt of (2E,4E)-2,4-hexadienoic acid was prepared by dissolving the salt in water to form a 20 mg/mL (20,000 ppm) solution. […] Each experiment was repeated at least 3 times.
as §7

[4] = Compound A alone, Botrytis cinerea, incubation period of 48 hours
[5] = aliphatic acid (salt) 0.05 mg/mL
[6] = aliphatic acid (salt) 0.30 mg/mL

CO/C=C(/C(=O)OC)c1ccccc1Oc1cc(Oc2ccccc2C#N)ncn1 [Azoxystrobin, reference compound]
MIC (A) (Fusarium oxysporum; 48 hours incubation): 75 mg/L and 150 mg/L
MIC (A) (Fusarium oxysporum; Fusarium oxysporum, 2-fold dilutions, incubation period of 48 hours): 150 mg/L
MIC (A) (Fusarium oxysporum; Fusarium oxysporum, incubation period of 48 hours): 150 mg/L
MIC (A) (Botrytis cinerea; Compound A alone, 48 hours incubation): 37.5 mg/L and 75 mg/L
MIC (A) (Botrytis cinerea; Compound A alone, Botrytis cinerea, incubation period of 2 days): 150 mg/L
MIC (A) (Botrytis cinerea; [4]): 150 mg/L
MIC (A) (Botrytis cinerea; Table 45, Compound A = azoxystrobin, alone or in combination with Compound B, 48 hours incubation): 75 mg/L
MIC (A) (Sclerotinia sclerotiorum; 7 days incubation): 150 mg/L and 75 mg/L
MIC (A) (Sclerotinia sclerotiorum; Sclerotinia sclerotiorum, 2-fold dilutions, incubation period of 7 days): 150 mg/L
MIC (A) (Sclerotinia sclerotiorum; Sclerotinia sclerotiorum, incubation period of 7 days): 150 mg/L
effective solubilized concentration of working stock solution [1]: 0.15 mg/mL

CC=CC=CC(=O)[O-].[K+] [2,4-hexenoic acid-Ksalt]
72 hr Obs. Efficacy (Trichoplusia ni [2]; [5]): 4%
72 hr Obs. Efficacy (Trichoplusia ni [2]; [6]): 13%
90 hr Obs. Efficacy (Trichoplusia ni [2]; [5]): 4%
90 hr Obs. Efficacy (Trichoplusia ni [2]; [6]): 13%
120 hr Obs. Efficacy (Trichoplusia ni [2]; [5]): 4%
120 hr Obs. Efficacy (Trichoplusia ni [2]; [6]): 4%

CO/C=C(/C(=O)OC)c1ccccc1COc1cccc(C(F)(F)F)n1 [Picoxystrobin, reference compound]
MIC (A) (Botrytis cinerea; [4]): 250 mg/L
MIC (A) (Sclerotinia sclerotiorum; 7 days incubation): 500 mg/L
MIC (A) (Alternaria solani; Compound A alone, incubation period of 7 days): 500 mg/L

O=C(O)CCCCCCCO [8-hydroxyoctanoic acid]
MIC (Fusarium oxysporum; Fusarium oxysporum, Fusarium oxysporum, 48 hours incubation): 5000 mg/L
MIC (Fusarium oxysporum; Fusarium oxysporum, Fusarium oxysporum, incubation period of 48 hours): 5000 mg/L
MIC (Sclerotinia sclerotiorum; Sclerotinia sclerotiorum, read-out: MIC (B), Compound B alone, Sclerotinia sclerotiorum, 7 days incubation): 2500 mg/L
MIC (Sclerotinia sclerotiorum; Sclerotinia sclerotiorum, read-out: MIC (B), Compound B alone, Sclerotinia sclerotiorum, incubation period of 7 days): 5000 mg/L
MIC (Alternaria solani; read-out: MIC (B), Compound B alone): 2500 mg/L

CC=CC=CC(=O)[O-].[K+] [2,4-hexadienoic acid, K-salt]
Observed Efficacy (%) (Trichoplusia ni [3]; after 48 hours): 13%
Observed Efficacy (%) (Trichoplusia ni [3]; after 72 hours): 0%

CCCCC(CC)C(=O)O (stereo not shown) [2-ethylhexanoic acid]
MIC (Botrytis cinerea; Botrytis cinerea, Botrytis cinerea, 48 hours incubation): 312 mg/L
MIC (Botrytis cinerea; Botrytis cinerea, Botrytis cinerea, incubation period of 48 hours): 312 mg/L
MIC (Sclerotinia sclerotiorum; Sclerotinia sclerotiorum, Compound B alone, Sclerotinia sclerotiorum, incubation period of 7 days, read-out: MIC (B)): 625 mg/L
MIC (Alternaria solani; Compound B alone, read-out: MIC (B)): 312 mg/L
